O=C(O)CNC(=O)c1ccccc1
solubility (mole fraction)
Conditions	in 1,4-dioxane	in DMF	in THF	in chloroform	in ethanol	in methanol	in n-butanol	in n-propanol
298.15 K	0.00729	0.206	0.0142	0.00021	0.0148	0.0179	0.00776	0.00884
303.15 K	0.0084	0.213	0.0167	0.00035	0.0162	0.0197	0.00908	0.0108
308.15 K	0.0109	0.219	0.018	0.00052	0.0194	0.023	0.0106	0.0121
313.15 K	0.014	0.226	0.0209	0.0007	0.024	0.0275	0.0128	0.0151
318.15 K	0.0164	0.232	0.0228	0.00088	0.029	0.0323	0.0151	0.0174
323.15 K	0.0182	0.239	0.026	0.00102	0.0342	0.0378	0.0178	0.0201
328.15 K	0.0209	0.246	0.0291	0.0011	0.0396	0.0448	0.0205	0.0232

Source: BigSolDB 2.1
